# Like-named read-outs stand apart in the source and are kept apart here.
# Key:
# [1] = test system: CYP3A4; test: clinical; conditions: human, in vivo, po; for AUC(0-inf): AUCinf; for AUC(0-inf) / AUC(0-t) / Cmax: N=12; for AUC(0-t): AUClast
# [2] = test system: CYP3A4
# [3] = 2 mg, GLSM, midazolam 2 mg single oral dose without RBN-3143 (day 1)
# [4] = 2 mg, geometric mean (Geo CV%), midazolam 2 mg single oral dose without RBN-3143 (day 1)
# [5] = 2 mg, mean (SD), midazolam 2 mg single oral dose without RBN-3143 (day 1)
# [6] = GLSM, midazolam 2 mg single oral dose with RBN-3143 300 mg BID at steady state (day 16)
# [7] = geometric mean (Geo CV%), midazolam 2 mg single oral dose with RBN-3143 300 mg BID at steady state (day 16)
# [8] = mean (SD), midazolam 2 mg single oral dose with RBN-3143 300 mg BID at steady state (day 16)
# [9] = midazolam with RBN-3143 / without RBN-3143 (300 mg BID for 14 days)
# [10] = midazolam with RBN-3143 / without RBN-3143 (300 mg BID for 14 days), listed as midazolam
compound,measurement,setting,value
"Cc1ncc2n1-c1ccc(Cl)cc1C(c1ccccc1F)=NC2 [Midazolam, midazolam]",AUC(0-inf),[1]; [3],0.0208 µg·h/mL
same,AUC(0-inf),[1]; [4],0.0208 µg·h/mL
same,AUC(0-inf),[1]; [5],0.0222 µg·h/mL
same,AUC(0-t),[1]; [3],0.0198 µg·h/mL
same,AUC(0-t),[1]; [4],0.0198 µg·h/mL
same,AUC(0-t),[1]; [5],0.0212 µg·h/mL
same,Cmax,[1]; [3],9.88 ng/mL
same,Cmax,[1]; [4],9.87 ng/mL
same,Cmax,[1]; [5],10.3 ng/mL
same,half-life,"[1]; 2 mg, t1/2, geometric mean (Geo CV%), midazolam 2 mg single oral dose without RBN-3143 (day 1)",3.05 h
same,half-life,"[1]; 2 mg, t1/2, mean (SD), midazolam 2 mg single oral dose without RBN-3143 (day 1)",3.29 h
same,AUC(0-inf),[1]; [6],0.0183 µg·h/mL
same,AUC(0-inf),[1]; [7],0.0183 µg·h/mL
same,AUC(0-inf),[1]; [8],0.0199 µg·h/mL
same,AUC(0-t),[1]; [6],0.0172 µg·h/mL
same,AUC(0-t),[1]; [7],0.0172 µg·h/mL
same,AUC(0-t),[1]; [8],0.0186 µg·h/mL
same,Cmax,[1]; [6],9.11 ng/mL
same,Cmax,[1]; [7],9.11 ng/mL
same,Cmax,[1]; [8],9.76 ng/mL
same,half-life,"[1]; t1/2, geometric mean (Geo CV%), midazolam 2 mg single oral dose with RBN-3143 300 mg BID at steady state (day 16)",3.09 h
same,half-life,"[1]; t1/2, mean (SD), midazolam 2 mg single oral dose with RBN-3143 300 mg BID at steady state (day 16)",3.49 h
same,subjects with decreased exposure to oral midazolam,[2]; after RBN-3143 300 mg BID to steady-state,9/12
same,increase of midazolam Cmax in 1 subject against the trend,[2]; in the presence of RBN-3143,3 fold
same,subjects showing increased midazolam AUCinf,[2]; in the presence of RBN-3143,3 subjects out of 12
same,subjects showing increased midazolam Cmax,[2]; in the presence of RBN-3143,2 subjects out of 12
same,AUCinf GLSM ratio (90% CI),[2]; [9],"… … 0.88 (0.76, 1.01)"
same,AUClast GLSM ratio (90% CI),[2]; [9],"… … 0.87 (0.75, 1.01)"
same,Cmax GLSM ratio (90% CI),[2]; [9],"… … 0.92 (0.74, 1.16)"
same,AUCinf GLSM ratio (90% CI),[2]; [10],0.88
same,Cmax GLSM ratio (90% CI),[2]; [10],0.92
